From patent publication US12145947B2, “Pyrimidine based modulators and uses thereof” (Quanta Therapeutics, Inc., priority 2022, dated 2024) come the findings set out here.

Structures are written as SMILES.

Experiment [1] has as its target T1, GST-tagged KRAS-G12D (2-169) (Homo sapiens, UniProt P01116, G12D).
T1 construct: GST-tagged KRAS-G12D (2-169, Reaction Biology, MSC-11-539); purchased Reaction Biology MSC-11-539 (KRAS G12D); MSC-11-502 (SOS1cat)
Put plainly: Nucleotide exchange assay (NEA), SOS-mediated, HTRF, KRAS G12D. The following applies: Table 4; IC50 extracted at 30 min. The class given is biochemical. From the text: This activity is tightly regulated by GTPase activating proteins (GAPs) and guanine nucleotide exchange factors (GEFs). GEFs, such as SOS1/2, activate Ras proteins by exchanging GDP for GTP, thus returning Ras to its active conformation (Simanshu, Nissley, & McCormick, 2017). […] Homogenous time resolved fluorescence (HTRF) was used to detect SOS-mediated binding of a fluorescent GTP analog, GTP-DY-647P1 (Jena Biosciences NU-820-647P1) to GST-tagged KRAS-G12D (2-169, Reaction Biology, MSC-11-539) or to GST-tagged KRAS-G12V (2-169, Reaction Biology, MSC-11-540).
GST-tagged KRAS-G12D (2-169) and anti-GST MAb Tb Cryptate Gold (CisBio 61GSTTLB) were diluted into assay buffer (20 mM HEPES, pH 7.3, 150 mM NaCl, 5 mM MgCl2, 0.05% BSA 0.0025% NP40, 1 mM DTT) to prepare a 2.5× donor solution. 5× compound was added to the protein mixture and incubated for 1 h at RT. 2.5× acceptor solution containing SOSIcat (564-1049, Reaction Biology MSC-11-502) and GTP-DY-647P1 were then added to the donor KRAS mixture such that the final concentration of the reaction contained 5 nM GST-tagged KRAS-G12D (2-169), 20 nM SOScat, and 150 nM GTP. The reaction was monitored using at RT with the Envision multimode plate reader (Ex/Em 337/665, […]) up to 90 minutes at 5 minute intervals. To monitor KRAS-G12V Sos-mediated nucleotide exchange, 80 nM SOS was added to reaction instead of 20 nM. All other components were the same as previously described. Data was blanked to reactions without SOS1 and % inhibition was calculated such that DMSO only=0% and blank=100%. Curve fitting was done using a 4 parameter fit. Reported IC50 values were extracted at 30 min and 90 min for the KRAS-G12D and KRAS-G12V assays, respectively.
Curve fitting was done using a 4 parameter fit. NEA KRAS G12D IC50 (uM) values of selected compounds are depicted in Table 2 with compounds having a value <0.01 uM as ++++; >0.01 uM to 0.1 uM as +++; >0.1 uM to 1 uM as ++; >1 uM to 20 uM as +; and >20 uM as NA.
(In general: Time-resolved FRET reads energy transfer from a long-lived donor to a nearby acceptor.)

In experiment [2] the target is T2, KRAS G12D/RAF1 (Homo sapiens, UniProt P01116, G12D).
T2 construct: His6-MBP (N, cleaved yes); made in house; host or cells: E. coli
Kind of experiment: Protein-protein interaction (PPI) HTRF assay KRAS G12D/RAF1. The class given is binding. Particulars: Table 4. As for the experimental part:
Biotinylated KRAS wt and KRAS G12DNV proteins were expressed and purified in conditions similar to those previously reported (Tran, et al., 2021) (Zhang, et al., 2020). Briefly, KRAS (1-169) proteins were expressed in E. coli at 18° C. with an upstream TEV cleavage site (ENLFYQS (SEQ ID NO: 6)) followed an Avi tag sequence ([…] (SEQ ID NO: 7)). KRAS expression constructs contained both a His6 (SEQ ID NO: 8) and maltose-binding protein (MBP) tags at the N-terminus for Ni-NTA column purification prior to overnight TEV cleavage and MBP column purification. The avi-tagged NRAS expression construct contained both a His6 tag (SEQ ID NO: 8) and SUMO cleavage sige at the N-terminus for Ni-NTA column purification followed by His-ULPi digestion overnight. All avi-tagged RAS proteins were dialyzed into buffer containing ATP, biotin, and BirA followed by purification over a second Ni-NTA column and then run over a size exclusion HiLoad™ 26/600 Superdex™ column in 20 mM HEPES, pH 7.5, 300 mM NaCl, 5 mM MgCl2, and 1 mM TCEP. Fractions containing the protein of interest were pooled, concentrated, and confirmed by intact mass spectrometry. To prepare ‘GTP’ loaded KRAS and NRAS, biotinylated KRAS or NRAS was nucleotide exchanged from GDP-bound protein to GppNHp-bound (Jena Biosciences, NU-401-50) protein in the presence of alkaline phosphatase and excess GppNHp as previously described and the resulting nucleotide content was confirmed by HPLC reverse phase analytical chromatography (Donohue, et al., 2019) (Tran, et al., 2021).
His-tagged RAF1 (52-131) was similarly expressed in E. coli at 18° C. overnight with an upstream TEV cleavage site. His-tagged RAF1 expression construct contained both a His6 (SEQ ID NO: 8) and MBP tags at the N-terminus for Ni-NTA column purification followed by MBP-tagged TEV digestion overnight. RAF1 protein samples were further purified over a MBP column followed by a Ni-NTA column and a second MBP column. The fractions containing the protein of interest were pooled, concentrated, and further purified over a HiLoad™ 16/600 Superdex™ 75 pg size exclusion column into 20 mM HEPES, pH8.0, 200 mM NaCl, 5 mM TCEP.
When RAS proteins are in the active GTP-bound conformation, they bind the effector protein RAF1 at the N-terminus Ras-binding domain (RBD, residues 52-131) (Tran, et al., 2021). Homogenous time resolved fluorescence (HTRF) was used to monitor the interaction between wt or mutant KRAS and RAF1 or wt NRAS and RAFT. Compounds were assayed in the presence of KRAS G12D/V and RAF1 versus wt KRAS to assess activity against mutant and w.t. KRAS. Similarly, compounds were then assayed in the presence of w.t. NRAS and RAF1 to assess RAS isoform selectivity. In all assay formats, His-tagged RAF1 protein was incubated with the HTRF donor, anti-6His (“6His” disclosed as SEQ ID NO: 8) Tb Cryptate gold (Cisbio 61DB10RDF), and biotinylated RAS proteins were incubated with the HTRF acceptor, streptavidin-d2 (CisBio 610SADLA). The intensity of the fluorescence signal emitted is proportional to binding between the two proteins. The donor solution was prepared by mixing 16 nM His-tagged RAF1 in protein dilution buffer with 1:100 anti-6His (“6His” disclosed as SEQ ID NO: 8) Tb cryptate in PPI-Terbium detection buffer. 16 nM biotinylated RAS protein was diluted into protein dilution buffer (50 mM Tris-HCl pH 7.5, 150 mM NaCl, 0.1 mM MgCl2, 1 mM TCEP, 0.005% Tween20) and mixed with 1:2000 Streptavidin-d2 diluted in PPI-Terbium detection buffer (CisBio 61DBTORDF). 50× compound in DMSO was mixed with 16 nM KRAS-acceptor solution and incubated for 30 minutes at room temperature. After compound pre-incubation with KRAS, the RAF1 donor solution was added to the KRAS-acceptor solution and incubated for 1 hour at room temperature. The fluorescence signal emitted was monitored at 665 nm and 615 nm using an Envision multimode plate reader. […]

T2 sequence (P01116 with tags, fused parts or gaps isoform P01116-2 G12D): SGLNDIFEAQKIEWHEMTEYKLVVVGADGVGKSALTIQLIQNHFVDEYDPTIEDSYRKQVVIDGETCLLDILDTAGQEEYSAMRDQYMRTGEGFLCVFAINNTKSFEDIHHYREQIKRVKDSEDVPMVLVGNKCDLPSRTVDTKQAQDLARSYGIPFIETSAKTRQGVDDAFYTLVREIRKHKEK
T1 sequence (P01116 2-169 isoform P01116-2 G12D): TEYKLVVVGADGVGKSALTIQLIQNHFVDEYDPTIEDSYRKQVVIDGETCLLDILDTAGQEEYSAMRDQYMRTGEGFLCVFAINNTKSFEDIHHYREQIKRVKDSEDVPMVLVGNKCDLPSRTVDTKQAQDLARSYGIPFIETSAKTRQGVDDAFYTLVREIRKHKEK

For orientation: IC50 means the point on the concentration scale where inhibition reaches its midpoint. For the compound `Cc1nnc(-c2nn3c(c2Cl)CN(c2nc(OC[C@@]45CCCN4C[C@H](F)C5)nc(N4CC5(CCc6sc(N)c(C#N)c65)C4)c2C#N)CCC3)n1C` [Compound 60, 2-amino-1′-[6-[3-chloro-2-(4,5-dimethyl-1,2,4-triazol-3-yl)-4,6,7,8-tetrahydropyrazolo[1,5-a][1,4]diazepin-5-yl]-5-cyano-2-[[(2R,8S)-2-fluoro-1,2,3,5,6,7-hexahydropyrrolizin-8-yl]methoxy]pyrimidin-4-yl]spiro[5,6-dihydrocyclopenta[b]thiophene-4,3′-azetidine]-3-carbonitrile], the figures for the IC50 in experiment [1] and in experiment [2] were less than 10 nM and 1000 to 10000 nM, respectively.

For the compound `N#Cc1c(N2C[C@H]3CC[C@@H](C2)N3)nc(OCC2(CN3CCC(F)CC3)CC2)nc1N1CC2(CCc3sc(N)c(C#N)c32)C1` [Compound 28, 2-amino-1′-[5-cyano-6-(3,8-diazabicyclo[3.2.1]octan-3-yl)-2-[[1-[(4-fluoro-1-piperidyl)methyl]cyclopropyl]methoxy]pyrimidin-4-yl]spiro[5,6-dihydrocyclopenta[b]thiophene-4,3′-azetidine]-3-carbonitrile], the IC50 fell in the range of 10 to 100 nM in experiment [1] and 100 to 1000 nM in experiment [2].

On to `CN1CCC[C@H]1COc1nc(N2C[C@H]3CC[C@@H](C2)N3)c(C#N)c(N2CC3(CCc4sc(N)c(C#N)c43)C2)n1` [Compound 83, 2-amino-1′-[5-cyano-6-[(1R,5S)-3,8-diazabicyclo[3.2.1]octan-3-yl]-2-[[(2S)-1-methylpyrrolidin-2-yl]methoxy]pyrimidin-4-yl]spiro[5,6-dihydrocyclopenta[b]thiophene-4,3′-azetidine]-3-carbonitrile], for which the IC50 in experiment [1] is less than 10 nM; in experiment [2], 100 to 1000 nM.

For `N#Cc1c(N2C[C@H]3CC[C@@H](C2)N3)nc(OCC2(c3ccccc3)CC2)nc1N1CC2(CCc3sc(N)c(C#N)c32)C1` [Compound 84, 2-amino-1′-[5-cyano-6-[(1R,5S)-3,8-diazabicyclo[3.2.1]octan-3-yl]-2-[(1-phenylcyclopropyl)methoxy]pyrimidin-4-yl]spiro[5,6-dihydrocyclopenta[b]thiophene-4,3′-azetidine]-3-carbonitrile], the IC50 in experiment [1] is less than 10 nM; in experiment [2], 100 to 1000 nM.

`CN(C)C(=O)c1nn2c(c1Cl)CN(c1nc(OC[C@@]34CCCN3C[C@H](F)C4)nc(N3CC4(C3)C(=O)Cc3ccccc34)c1C#N)CCC2` [Compound 37, 3-chloro-5-[5-cyano-2-[[(2R,8S)-2-fluoro-1,2,3,5,6,7-hexahydropyrrolizin-8-yl]methoxy]-6-(2′-oxospiro[azetidine-3,1′-indane]-1-yl)pyrimidin-4-yl]-N,N-dimethyl-4,6,7,8-tetrahydropyrazolo[1,5-a][1,4]diazepine-2-carboxamide]: the IC50 is greater than 20000 nM in experiment [1] and greater than 100000 nM in experiment [2].

`N#Cc1c(N2C[C@H]3CC[C@@H](C2)N3)nc(OCC2(CN3CCC(F)(F)CC3)CC2)nc1N1CC2(CCCc3sc(N)c(C#N)c32)C1` [Compound 56, 2-amino-1′-[5-cyano-6-[(1R,5S)-3,8-diazabicyclo[3.2.1]octan-3-yl]-2-[[1-[(4,4-difluoro-1-piperidyl)methyl]cyclopropyl]methoxy]pyrimidin-4-yl]spiro[6,7-dihydro-5H-benzothiophene-4,3′-azetidine]-3-carbonitrile]: the IC50 in experiment [1] is less than 10 nM; in experiment [2], 100 to 1000 nM.

Regarding `N#Cc1cnc(OCC2(CN3CCOCC3)CC2)nc1N1CC2(CCCc3sc(N)c(C#N)c32)C1` [Compound 63, 2-amino-1′-[5-cyano-2-[[1-(morpholinomethyl)cyclopropyl]methoxy]pyrimidin-4-yl]spiro[6,7-dihydro-5H-benzothiophene-4,3′-azetidine]-3-carbonitrile], the IC50 in experiment [1] fell in the range of 10 to 100 nM; in experiment [2], 10000 to 100000 nM.

With `N#Cc1c(N2C[C@H]3CC[C@@H](C2)[C@@H]3N)nc(OCC2(CN3CCOCC3)CC2)nc1N1CC2(CCc3sc(N)c(C#N)c32)C1` [Compound 61, 2-amino-1′-[6-[(1R,5S)-8-amino-3-azabicyclo[3.2.1]octan-3-yl]-5-cyano-2-[[1-(morpholinomethyl)cyclopropyl]methoxy]pyrimidin-4-yl]spiro[5,6-dihydrocyclopenta[b]thiophene-4,3′-azetidine]-3-carbonitrile], the IC50 lay in the range of 10 to 100 nM in experiment [1] and 100 to 1000 nM in experiment [2].

As to `N#Cc1c(N2C[C@H]3CC[C@@H](C2)N3)nc(OCC2(CN3CCSCC3)CC2)nc1N1CC2(CCc3sc(N)c(C#N)c32)C1` [Compound 72, 2-amino-1′-[5-cyano-6-[(1R,5S)-3,8-diazabicyclo[3.2.1]octan-3-yl]-2-[[1-(thiomorpholinomethyl)cyclopropyl]methoxy]pyrimidin-4-yl]spiro[5,6-dihydrocyclopenta[b]thiophene-4,3′-azetidine]-3-carbonitrile], the IC50 in experiment [1] was less than 10 nM; in experiment [2], 100 to 1000 nM.

As for `C[C@H]1COCCN1CC1(COc2nc(N3C[C@H]4CC[C@@H](C3)N4)c(C#N)c(N3CC4(CCc5sc(N)c(C#N)c54)C3)n2)CC1` [Compound 77, 2-amino-1′-[5-cyano-6-[(1R,5S)-3,8-diazabicyclo[3.2.1]octan-3-yl]-2-[[1-[[(3S)-3-methylmorpholin-4-yl]methyl]cyclopropyl]methoxy]pyrimidin-4-yl]spiro[5,6-dihydrocyclopenta[b]thiophene-4,3′-azetidine]-3-carbonitrile], the concentration for half-maximal inhibition (IC50) was less than 10 nM in experiment [1] and 10000 to 100000 nM in experiment [2].
